According to PubChem BioAssay (NCI):
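How tested: cells in 96-well plates exposed to compound for 48 hours at five concentrations. Definition used: TGI = concentration required for complete inhibition of growth.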 Active and inactive are the calls of the source. Rule as the data show it: active = GI50 below about 0.43 µM; inactive = the rest.

How the values were obtained:
Experiment in all cases: NCI anticancer screen, dose series, 48 h
M14 melanoma = system: M14 melanoma
MOLT-4 leukemia = system: MOLT-4 leukemia
HOP-92 NSCLC = system: HOP-92 NSCLC
SR leukemia = system: SR leukemia
OVCAR-8 ovarian = system: OVCAR-8 ovarian
OVCAR-4 ovarian = system: OVCAR-4 ovarian
SK-MEL-5 melanoma = system: SK-MEL-5 melanoma
RXF 393 renal = system: RXF 393 renal
SNB-75 CNS = system: SNB-75 CNS
HCC-2998 colon = system: HCC-2998 colon
EKVX NSCLC = system: EKVX NSCLC
SF-539 CNS = system: SF-539 CNS
HL-60(TB) leukemia = system: HL-60(TB) leukemia
DU-145 prostate = system: DU-145 prostate
SK-MEL-28 melanoma = system: SK-MEL-28 melanoma
A549 NSCLC = system: A549 NSCLC
T-47D breast = system: T-47D breast
SK-OV-3 ovarian = system: SK-OV-3 ovarian
NCI-H23 lung = system: NCI-H23 lung
SW-620 colon = system: SW-620 colon
OVCAR-5 ovarian = system: OVCAR-5 ovarian
HCT-15 colon = system: HCT-15 colon
CCRF-CEM leukemia = system: CCRF-CEM leukemia
SF-295 CNS = system: SF-295 CNS
KM12 colon = system: KM12 colon
HCT-116 colon = system: HCT-116 colon
TK-10 renal = system: TK-10 renal
NCI-H226 lung = system: NCI-H226 lung
K-562 leukemia = system: K-562 leukemia
SF-268 CNS = system: SF-268 CNS
NCI/ADR-RES ovarian = system: NCI/ADR-RES ovarian
ACHN renal = system: ACHN renal
U251 CNS = system: U251 CNS
HS 578T breast = system: HS 578T breast
SNB-19 CNS = system: SNB-19 CNS
A498 renal = system: A498 renal
RPMI-8226 leukemia = system: RPMI-8226 leukemia
UO-31 renal = system: UO-31 renal
MDA-MB-231 breast = system: MDA-MB-231 breast
COLO 205 colon = system: COLO 205 colon
UACC-257 melanoma = system: UACC-257 melanoma
UACC-62 melanoma = system: UACC-62 melanoma
786-0 renal = system: 786-0 renal
MALME-3M melanoma = system: MALME-3M melanoma
MDA-MB-435 = system: MDA-MB-435
SN12C renal = system: SN12C renal
HT29 colon = system: HT29 colon
IGROV1 ovarian = system: IGROV1 ovarian
HOP-62 NSCLC = system: HOP-62 NSCLC
MCF7 breast = system: MCF7 breast
NCI-H522 lung = system: NCI-H522 lung
LOX IMVI melanoma = system: LOX IMVI melanoma
SK-MEL-2 melanoma = system: SK-MEL-2 melanoma
BT-549 breast = system: BT-549 breast
CAKI-1 renal = system: CAKI-1 renal
PC-3 prostate = system: PC-3 prostate
OVCAR-3 ovarian = system: OVCAR-3 ovarian

Question: Which TGI (M14 melanoma) does the source give for `O=C(CCC(=O)CC(O)(C(F)(F)F)C(F)(F)F)CC(O)(C(F)(F)F)C(F)(F)F` here?
Answer: > 100 µM

Question: What about the TGI (MOLT-4 leukemia) of the same compound?
Answer: > 100 µM

Question: And the TGI (HOP-92 NSCLC)?
Answer: 49.4 µM

Question: What about the TGI (SR leukemia) of the same compound?
Answer: > 100 µM

Question: And the TGI (OVCAR-8 ovarian)?
Answer: > 100 µM

Question: What about the TGI (OVCAR-4 ovarian) of the same compound?
Answer: > 100 µM

Question: What about the TGI (SK-MEL-5 melanoma) of the same compound?
Answer: > 100 µM

Question: And the TGI (RXF 393 renal)?
Answer: > 100 µM

Question: What about the TGI (SNB-75 CNS) of the same compound?
Answer: > 100 µM

Question: And the TGI (HCC-2998 colon)?
Answer: > 100 µM

Question: What about the TGI (EKVX NSCLC) of the same compound?
Answer: > 100 µM

Question: What about the TGI (SF-539 CNS) of the same compound?
Answer: > 100 µM

Question: What about the TGI (HL-60(TB) leukemia) of the same compound?
Answer: 91.2 µM

Question: What about the TGI (DU-145 prostate) of the same compound?
Answer: > 100 µM

Question: What about the TGI (SK-MEL-28 melanoma) of the same compound?
Answer: > 100 µM

Question: And the TGI (A549 NSCLC)?
Answer: > 100 µM

Question: What about the TGI (T-47D breast) of the same compound?
Answer: > 100 µM

Question: What about the TGI (SK-OV-3 ovarian) of the same compound?
Answer: > 100 µM

Question: What about the TGI (NCI-H23 lung) of the same compound?
Answer: 95.8 µM

Question: What about the TGI (SW-620 colon) of the same compound?
Answer: > 100 µM

Question: What about the TGI (OVCAR-5 ovarian) of the same compound?
Answer: > 100 µM

Question: And the TGI (HCT-15 colon)?
Answer: > 100 µM

Question: What about the TGI (CCRF-CEM leukemia) of the same compound?
Answer: > 100 µM

Question: And the TGI (SF-295 CNS)?
Answer: > 100 µM

Question: And the TGI (KM12 colon)?
Answer: > 100 µM

Question: And the TGI (HCT-116 colon)?
Answer: > 100 µM

Question: And the TGI (TK-10 renal)?
Answer: > 100 µM

Question: And the TGI (NCI-H226 lung)?
Answer: 69.5 µM

Question: What about the TGI (K-562 leukemia) of the same compound?
Answer: > 100 µM

Question: And the TGI (SF-268 CNS)?
Answer: > 100 µM

Question: What about the TGI (NCI/ADR-RES ovarian) of the same compound?
Answer: > 100 µM

Question: What about the TGI (ACHN renal) of the same compound?
Answer: > 100 µM

Question: What about the TGI (U251 CNS) of the same compound?
Answer: > 100 µM

Question: And the TGI (HS 578T breast)?
Answer: > 100 µM

Question: What about the TGI (SNB-19 CNS) of the same compound?
Answer: 72.4 µM

Question: What about the TGI (A498 renal) of the same compound?
Answer: 67.4 µM

Question: And the TGI (RPMI-8226 leukemia)?
Answer: 97.8 µM

Question: And the TGI (UO-31 renal)?
Answer: 59.3 µM

Question: What about the TGI (MDA-MB-231 breast) of the same compound?
Answer: > 100 µM

Question: What about the TGI (COLO 205 colon) of the same compound?
Answer: 96.3 µM

Question: And the TGI (UACC-257 melanoma)?
Answer: > 100 µM

Question: What about the TGI (UACC-62 melanoma) of the same compound?
Answer: > 100 µM

Question: And the TGI (786-0 renal)?
Answer: > 100 µM

Question: What about the TGI (MALME-3M melanoma) of the same compound?
Answer: > 100 µM

Question: And the TGI (MDA-MB-435)?
Answer: > 100 µM

Question: What about the TGI (SN12C renal) of the same compound?
Answer: > 100 µM

Question: And the TGI (HT29 colon)?
Answer: > 100 µM

Question: And the TGI (IGROV1 ovarian)?
Answer: > 100 µM

Question: And the TGI (HOP-62 NSCLC)?
Answer: > 100 µM

Question: What about the TGI (MCF7 breast) of the same compound?
Answer: > 100 µM

Question: What does the source list for `O=c1c2ccccc2c(=O)c2c1c1[nH]c3ccccc3c1c1c(=O)c3ccccc3c(=O)c21`?
Answer: outcome (MOLT-4 leukemia): inactive; outcome (SR leukemia): inactive; outcome (RPMI-8226 leukemia): inactive

Question: For `COc1cc([C@@H]2c3cc4c(cc3[C@@H](Nc3ccccc3C(=O)c3ccccc3)[C@H]3COC(=O)[C@H]23)OCO4)cc(OC)c1OC`, which TGI (M14 melanoma) is on record?
Answer: > 53.7 µM

Question: And the TGI (MOLT-4 leukemia)?
Answer: > 100 µM

Question: What about the TGI (OVCAR-8 ovarian) of the same compound?
Answer: > 38.3 µM

Question: And the TGI (OVCAR-4 ovarian)?
Answer: > 100 µM

Question: And the TGI (SK-MEL-5 melanoma)?
Answer: 2.93 µM

Question: And the TGI (RXF 393 renal)?
Answer: > 100 µM

Question: And the TGI (HCC-2998 colon)?
Answer: > 28.7 µM

Question: What about the TGI (EKVX NSCLC) of the same compound?
Answer: > 100 µM

Question: And the TGI (NCI-H522 lung)?
Answer: 2.07 µM

Question: And the TGI (SF-539 CNS)?
Answer: 0.638 µM

Question: What about the TGI (DU-145 prostate) of the same compound?
Answer: > 100 µM

Question: And the TGI (SK-MEL-28 melanoma)?
Answer: > 100 µM

Question: And the TGI (A549 NSCLC)?
Answer: > 100 µM

Question: And the TGI (T-47D breast)?
Answer: > 100 µM

Question: What about the TGI (SK-OV-3 ovarian) of the same compound?
Answer: > 100 µM

Question: What about the TGI (LOX IMVI melanoma) of the same compound?
Answer: > 100 µM

Question: What about the TGI (NCI-H23 lung) of the same compound?
Answer: > 100 µM

Question: What about the TGI (SW-620 colon) of the same compound?
Answer: > 81.6 µM

Question: And the TGI (OVCAR-5 ovarian)?
Answer: > 100 µM

Question: And the TGI (HCT-15 colon)?
Answer: 1.18 µM

Question: What about the TGI (CCRF-CEM leukemia) of the same compound?
Answer: > 100 µM

Question: What about the TGI (SF-295 CNS) of the same compound?
Answer: > 100 µM

Question: What about the TGI (KM12 colon) of the same compound?
Answer: 0.653 µM

Question: And the TGI (HCT-116 colon)?
Answer: > 100 µM

Question: What about the TGI (TK-10 renal) of the same compound?
Answer: > 100 µM

Question: What about the TGI (NCI-H226 lung) of the same compound?
Answer: > 100 µM

Question: What about the TGI (K-562 leukemia) of the same compound?
Answer: > 100 µM

Question: What about the TGI (SF-268 CNS) of the same compound?
Answer: > 100 µM

Question: And the TGI (NCI/ADR-RES ovarian)?
Answer: > 100 µM

Question: What about the TGI (ACHN renal) of the same compound?
Answer: > 100 µM

Question: What about the TGI (SK-MEL-2 melanoma) of the same compound?
Answer: > 100 µM

Question: What about the TGI (U251 CNS) of the same compound?
Answer: 0.979 µM

Question: And the TGI (HS 578T breast)?
Answer: > 100 µM

Question: And the TGI (SNB-19 CNS)?
Answer: > 100 µM

Question: And the TGI (BT-549 breast)?
Answer: > 100 µM

Question: What about the TGI (UO-31 renal) of the same compound?
Answer: > 100 µM

Question: What about the TGI (MDA-MB-231 breast) of the same compound?
Answer: > 66.1 µM

Question: And the TGI (COLO 205 colon)?
Answer: 1.42 µM

Question: And the TGI (UACC-257 melanoma)?
Answer: > 100 µM

Question: And the TGI (786-0 renal)?
Answer: > 100 µM

Question: What about the TGI (MALME-3M melanoma) of the same compound?
Answer: > 100 µM

Question: What about the TGI (CAKI-1 renal) of the same compound?
Answer: > 100 µM

Question: And the TGI (MDA-MB-435)?
Answer: 1.26 µM

Question: What about the TGI (PC-3 prostate) of the same compound?
Answer: > 78.7 µM

Question: What about the TGI (OVCAR-3 ovarian) of the same compound?
Answer: > 100 µM

Question: And the TGI (SN12C renal)?
Answer: > 100 µM

Question: What about the TGI (IGROV1 ovarian) of the same compound?
Answer: 90.5 µM

Question: And the TGI (HOP-62 NSCLC)?
Answer: > 100 µM

Question: What about the TGI (MCF7 breast) of the same compound?
Answer: > 100 µM

Question: `COc1ccc2[nH]c3c(c2c1)CCN[C@]31CS[C@@H]2c3c(OC(C)=O)c(C)c4c(c3[C@H](COC1=O)N1[C@@H]2[C@H]2c3c(cc(C)c(OC)c3O)C[C@@H]([C@@H]1O)N2C)OCO4` was tested. Which TGI (MOLT-4 leukemia) did it give?
Answer: > 100 µM

Question: What about the TGI (HOP-92 NSCLC) of the same compound?
Answer: 0.0132 µM

Question: What about the TGI (SR leukemia) of the same compound?
Answer: > 100 µM

Question: What about the TGI (CCRF-CEM leukemia) of the same compound?
Answer: > 100 µM

Question: What about the TGI (K-562 leukemia) of the same compound?
Answer: > 100 µM

Question: And the TGI (ACHN renal)?
Answer: 1.12 µM

Question: What about the TGI (CAKI-1 renal) of the same compound?
Answer: 1.68 µM

Question: And the TGI (HT29 colon)?
Answer: > 100 µM
